Patent publication US10925851B2 (Regents of the University of Minnesota, priority 2018, dated 2021)
Entries after “also recorded” stand apart in the source; their conditions may differ. Read-outs that look alike come from different tables or passages of the source.

Assays:
[1] = system: male CF-1 mice; experiment: Tail-flick assay (acute thermal pain); format: in vivo; settings: i.c.v. 100 μg per mouse, 15-90 min
Description: The Tail-Flick test comprises of acute nociception in which the tail of the test animal is thermally stimulated. The time it takes for the animal to either flick or withdraw its tail is recorded as a measure of the response to the thermal stimuli. For this test, mice were gently restrained in a cloth; the tail-flick beam was centered on the dorsal surface of the tail (about 15 mm from the end of the tail). The heat source was activated, and the latency for withdrawal of the tail was recorded. The intensity of the tail-flick beam was adjusted so that the average withdrawal time of the baseline measurement was 2 to 4 sec. For each animal, a baseline response latency was determined in two consecutive responses measured at 5 minute intervals. Animals were tested at 15, 30, 45, 60, 75, and 90 minutes after drug administration.
While hot-plate method is more sensitive at supraspinal level, the tail-flick method mostly embodies a spinal reflex response to noxious stimuli. […] The time it takes for the animal to either flick or withdraw its tail is recorded as a measure of the response to the stimuli. […]
Columbus Instruments tail-flick analgesiometer was employed for this experiment. […] The heat source was activated, and the latency for withdrawal of the tail recorded. […] For each animal, a baseline response latency was determined in two consecutive responses measured at 5 min intervals. […]

[2] = system: mice; experiment: Acetic acid writhing test (persistent pain); format: in vivo, mouse
Description: Acclimatized animals are treated systemically with a dilute solution of acetic acid inducing abdominal constrictions (writhes) or extension of hind limbs in the animal. The writhes and extensions are counted within a predetermined period of time to analyze the efficacy of the test compound. […] Percent inhibition is calculated according to the equation: % Inhibition=[(Mean number of writhes for control−Mean number of writhes for test compound)/(Mean number of writhes for control)]×100.
The mice were given vehicle or test compounds 15 min before acetic acid administration. Subsequently, all the groups of mice were injected with 1% (10 mL/kg) acetic acid solution intraperitoneally to induce writhing. The animals display characteristic movements such as extension of hind limb, abdominal constriction, and trunk twisting movement called writhing. The numbers of writhing episodes in 30 min period beginning at the time of the acetic acid administration were counted. […] APAP was dissolved in saline. Both test compounds were delivered intraperitoneally to the test animals.

[3] = system: mice; experiment: Formalin test (persistent pain); format: in vivo, mouse
Description: The formalin test is another variant model for analyzing pain-relieving properties of test compounds in pain produced by inflammation or by injury to peripheral tissue. It is divergent from the acetic acid writhing assay in producing a biphasic response. These pharmacologically distinct phases are generally observed from 1 to 10 minutes, and 15 to 60 minutes post injection. While phase-I is caused by a rapid relay response in pain fibers, sensitization due to peripheral inflammation results in phase-II response in this model.
Mice were injected with 20 μl of 2% buffered formalin solution into the intraplantar region of hind paw of mice and the total time spent in licking and biting of the formalin-treated paw by the animals over the course of 30 min (phase I, acute pain behavior, 0-5 min; phase II, chronic pain behavior, 15-30 min) was recorded. Test compounds were injected 15 min prior to formalin administration. The pain response time (licking time) was recorded for every 5-min period during the 30-min recording for each mouse. The test compounds were dissolved in 50% saline in DMSO solution and delivered systemically

[4] = system: mice; experiment: Co-administration of opioid antagonist naloxone in hot-plate and tail-flick assays; format: in vivo, mouse
Description: Naloxone dissolved in saline was either administered subcutaneously (s.c.; dosage: 5 mg/Kg) via an injection to the interscapular skin, or it was given intracerebroventricularly (5 μg per mouse).
Naloxone is a broad-spectrum opioid receptor antagonist. It is known to interact with, mu- (μ-), delta- (δ-), and kappa- (κ-) opioid receptors, with highest affinity for the μ receptors. […] Naloxone dissolved in saline was delivered subcutaneously (s.c.) via an injection to the interscapular skin.
5 mg/Kg naloxone dissolved in saline was administered subcutaneously (s.c.) via an injection to the interscapular skin. Analgesic efficacy for various time-points was determined in hot-plate and tail-flick assays as detailed above.

[5] = system: male CF1 mice; experiment: Hot-plate test (acute thermal pain)
Description: The hot plate was the top surface of an enclosed cylindrical glass bath through which thermostatically controlled hot water was circulated. Under the conditions used, the temperature of the surface of the cylinder was maintained at 55° C. […] Reaction times were also determined twice for each mouse at 15-min intervals half an hour before injecting the drug to establish a baseline reaction time control value. Mice having a mean reaction time greater than 13 seconds were excluded as non-responders.
In this transient pain model, a thermal analgesiometer hot-plate was utilized for the determination of antinociceptive potency of test compounds against acute thermal stimulus. Mice were administered compounds via intraperitoneal (i.p.) or intracerebroventricular (i.c.v.) routes. […] The results are expressed as a percent of the maximum possible effect (% MPE) according to the equation: % MPE=[(Post-drug latency−Pre-drug latency)/(Cutoff−Pre-drug latency)]×100.
The hot-plate was the top surface of an enclosed cylindrical glass bath through which thermostatically controlled hot water was circulated. Under the conditions used, the temperature of the surface of the cylinder was maintained at 55° C. […] Test compounds were administered via intraperitoneal (i.p.) or intracerebroventricular (i.c.v.) routes. […] Animals with a mean reaction time greater than 13 seconds were excluded as non-responders.

[6] = system: mice; experiment: Combination therapy with morphine, isobolographic analysis in tail-flick assay; settings: for Dose Reduction Index (DRI) Tosedostat: in combination with morphine; for ED50: Mus musculus, ip

SMILES: CC(C)C[C@@H](C(=O)N[C@H](C(=O)OC1CCCC1)c1ccccc1)[C@H](O)C(=O)NO [Tosedostat]
- analgesic effect [1]: does not impart analgesic effect; also recorded: does not prompt a potent analgesic effect; also recorded: ineffective in furnishing an antinociceptive response
- dosage required for analgesic effect equivalent to 200 mg/Kg APAP ([2]; i.p.): 1 mg/kg
- inhibition of writhings ([2]; i.p. 50 mg/Kg): > 90%
- attenuation of writhing episodes compared to control groups ([2]; i.p., 30-minute count after acetic acid): significant attenuation of writhing episodes in a dose-dependent manner
- phase-I response ([3]; i.p.): dose-dependent response
- phase-II nociceptive action of formalin ([3]; i.p., dosages as low as 1 mg/Kg): completely suppressed
- potency in comparison with APAP ([3]; same assay): significantly advantageous in potency
- effect of centrally administered naloxone on analgesic response of tosedostat ([4]; tosedostat 58.1 mg/Kg i.p. + naloxone 5 μg per mouse i.c.v.): no attenuation of analgesic response
- effect of subcutaneous naloxone on analgesic action of tosedostat ([4]; tosedostat 58.1 mg/Kg i.p. + naloxone 5 mg/Kg s.c.): partially blocked the analgesic action
- analgesic effect (% MPE time course) ([5]; i.c.v. 100 μg per mouse, 15-90 min post injection): did not show analgesic effect; also recorded: nominal analgesic effect; also recorded: did not register substantial analgesic outcome; also recorded: ineffective in furnishing an antinociceptive response
- analgesic effect, single time-point ([5]; i.c.v. 100 μg per mouse, 15 minutes after injection): nominal analgesic effect
- analgesic response in hot-plate compared to tail-flick experiments ([5]; i.p., over the course of 90 minutes): about two-fold better analgesic response
- Dose Reduction Index (DRI) Tosedostat ([6]; 15 min): 2.52
- Dose Reduction Index (DRI) Tosedostat ([6]; 30 min): 1.91
- Dose Reduction Index (DRI) Tosedostat ([6]; 45 min): 1.79
- Dose Reduction Index (DRI) Tosedostat ([6]; 60 min): 2.21
- ED50 ([6]; 0.25 h, read-out: Tosedostat ED50 (±SEM)): 89 ± 109 mg/kg
- ED50 ([6]; 0.5 h, read-out: Tosedostat ED50 (±SEM)): 85.8 ± 132 mg/kg
- ED50 ([6]; 0.75 h, read-out: Tosedostat ED50 (±SEM)): 71.5 ± 47.6 mg/kg
- ED50 ([6]; 1 h, read-out: ED50, given alone): 58.1 to 82 mg/kg
- ED50 ([6]; 1 h, read-out: Tosedostat ED50 (±SEM)): 97.3 ± 33.6 mg/kg
